In patent publication US7705020B2, “Benzimidazolone carboxylic acid derivatives” (Pfizer Inc., priority 2004, dated 2010):

melting point: 223 °C
Compound: CC(C)n1c(=O)n(C(=O)NCC2CCN(CC3(C(=O)O)CCOCC3)CC2)c2ccccc21 [Example 1, 4-{[4-({[(3-isopropyl-2-oxo-2,3-dihydro-1H-benzimidazol-1-yl)carbonyl]amino}methyl)piperidin-1-yl]methyl}tetrahydro-2H-pyran-4-carboxylic acid]
